From patent US20050209157A1, “Short bioactive peptides and methods for their use” (priority 2001, published 2005)
No end group written: not given here.

How the values were obtained:
[1] = test system: Candida albicans ATCC 10231; experiment: Antimicrobial assay I, modified protocol (tryptic soy broth), MFC; details: minimum fungicidal concentration, Table 4
Method: (§1) The preparation of all media, stock solutions, and dilutions took place in a laminar flow hood to prevent contamination. Bacterial cells were freshly grown on antibiotic medium 2 agar slants (pH 7.0 at 25° C.). Bacteria were suspended and diluted in antibiotic medium 3 to about 10^4 cfu/ml and used as the inoculum. Sample solutions (100 μl/well) were added to plates according to the plate layout. Inoculum (100 μl/well) was added to achieve a final concentration of 5×10^3 cfu/ml. Negative controls received 100 μl saline and 100 μl growth medium. Positive controls received 100 μl saline and 100 μl inoculum. Bacterial plates were incubated at 37° C. for 24 hours.
(§2) However, the data for Table 4 were obtained with a modified protocol wherein the medium was tryptic soy broth, inocolum strength was approximately 10^4 CFU per ml, and values determined were minimum bactericidal concentrations (MBC) or minimum fungicidal concentrations (MFC).
(§3) MBC or MFC values are in μg/mL. E. coli is Escherichia coli ATCC accession number 25922; P. aerug is Pseudomonas aeruginosa ATCC accession number 27853, S. aur. is Stapholococcus aureus ATCC accession number 25923; Candida is Candida albicans ATCC accession number 10231.

[2] = test system: Escherichia coli ATCC 25922; experiment: Antimicrobial assay I, modified protocol (tryptic soy broth), MBC; details: minimum bactericidal concentration, Table 4
[3] = test system: Stapholococcus aureus ATCC 25923; experiment: as above; details: minimum bactericidal concentration, Table 4
Method: as §1, §2, §3

[4] = test system: Pseudomonas aeruginosa ATCC 27853; experiment: as above; details: minimum bactericidal concentration, Table 4

FAKLA-NH2 [compound 128]
MFC Candida A.10231 [1]: INACT | MBC E. coli A.25922 [2]: INACT | MBC S. aur A.25923 [3]: INACT | MBC P. aerug A.27853 [4]: INACT

FAKLF-NH2 [compound 129]
MFC Candida A.10231 [1]: INACT | MBC E. coli A.25922 [2]: INACT | MBC S. aur A.25923 [3]: INACT | MBC P. aerug A.27853 [4]: INACT

FAKLFAKAFKKAL-NH2 [compound 117]
MFC Candida A.10231 [1]: INACT | MBC E. coli A.25922 [2]: INACT | MBC S. aur A.25923 [3]: INACT | MBC P. aerug A.27853 [4]: INACT

FAKLFAKLAKKFAL-NH2 [compound 121]
MFC Candida A.10231 [1]: 50 µg/mL | MBC E. coli A.25922 [2]: INACT | MBC S. aur A.25923 [3]: INACT | MBC P. aerug A.27853 [4]: INACT

FAKLLAKFLKKAL-NH2 [compound 113]
MFC Candida A.10231 [1]: 40 µg/mL | MBC E. coli A.25922 [2]: INACT | MBC S. aur A.25923 [3]: INACT | MBC P. aerug A.27853 [4]: INACT

FAKLLAKLAKKFAL-NH2 [compound 120]
MFC Candida A.10231 [1]: INACT | MBC E. coli A.25922 [2]: INACT | MBC S. aur A.25923 [3]: INACT | MBC P. aerug A.27853 [4]: INACT

FAKLLAKLAKKIL-NH2 [compound 125]
MFC Candida A.10231 [1]: 40 µg/mL | MBC E. coli A.25922 [2]: 40 µg/mL | MBC S. aur A.25923 [3]: INACT | MBC P. aerug A.27853 [4]: 40 µg/mL

FAKLLAKLAKKSL-NH2 [compound 127]
MFC Candida A.10231 [1]: INACT | MBC E. coli A.25922 [2]: INACT | MBC S. aur A.25923 [3]: INACT | MBC P. aerug A.27853 [4]: INACT

FAKLLFKALKKAL-NH2 [compound 112]
MFC Candida A.10231 [1]: INACT | MBC E. coli A.25922 [2]: 30 µg/mL | MBC S. aur A.25923 [3]: INACT | MBC P. aerug A.27853 [4]: INACT

FAKLWAKLAFGKGIGKVGKKLL-NH2 [compound 135]
MFC Candida A.10231 [1]: 25 µg/mL | MBC E. coli A.25922 [2]: INACT | MBC S. aur A.25923 [3]: INACT | MBC P. aerug A.27853 [4]: 40 µg/mL

FAKLWAKLAKKL-NH2 [compound 136]
MFC Candida A.10231 [1]: INACT | MBC E. coli A.25922 [2]: INACT | MBC S. aur A.25923 [3]: INACT | MBC P. aerug A.27853 [4]: INACT

FALALKA-NH2 [compound 141]
MFC Candida A.10231 [1]: INACT | MBC E. coli A.25922 [2]: INACT | MBC S. aur A.25923 [3]: INACT | MBC P. aerug A.27853 [4]: INACT

FALKALKK-NH2 [compound 145]
MFC Candida A.10231 [1]: 100 µg/mL | MBC E. coli A.25922 [2]: INACT | MBC S. aur A.25923 [3]: INACT | MBC P. aerug A.27853 [4]: INACT

FGKGIGKVGKKLL-NH2 [compound 132]
MFC Candida A.10231 [1]: INACT | MBC E. coli A.25922 [2]: INACT | MBC S. aur A.25923 [3]: INACT | MBC P. aerug A.27853 [4]: INACT

KAKLF-NH2 [compound 130]
MFC Candida A.10231 [1]: INACT | MBC E. coli A.25922 [2]: INACT | MBC S. aur A.25923 [3]: INACT | MBC P. aerug A.27853 [4]: INACT

KWKLAKKALALL-NH2 [compound 142]
MFC Candida A.10231 [1]: INACT | MBC E. coli A.25922 [2]: INACT | MBC S. aur A.25923 [3]: INACT | MBC P. aerug A.27853 [4]: INACT

KWKLF-NH2 [compound 131]
MFC Candida A.10231 [1]: INACT | MBC E. coli A.25922 [2]: INACT | MBC S. aur A.25923 [3]: INACT | MBC P. aerug A.27853 [4]: INACT
